Test results taken from article PMC9933482 (ACS Omega, 2023).
≈ marks a conversion by molar mass, not a printed value. Entries after “also recorded” stand apart in the source; their conditions may differ.

Tests used:
[1] = test system: human lung fibroblast cell line WI38; experiment: MTT cell viability, normal lung fibroblast WI38; type: cell-based; details: WI-38, read-out: IC50 in μg/mL WI38
HePG-2 cells [2] = experiment: Cell cycle analysis by DNA flow cytometry; type: cell-based, human; details: for %G0–G1 (DNA content) / %G2/M (DNA content) / %S (DNA content): HePG-2, compound at IC50, 24 h
caspase-9 = experiment: Caspase 9 assay; type: cell-based, human; details: for increase in level of active caspase-9 compared to control: HePG-2; for Casp9 OD: HepG2 cells treated with compound
[3] = target: human carbonic anhydrase IX (hCAIX) (Homo sapiens, UniProt Q16790); experiment: biochemical
MCF-7 cell line = experiment: MTT cytotoxicity assay, MCF-7; type: cell-based, human; details: for IC50: Homo sapiens, MCF7, 24 h, read-out: IC50 in μg/mL MCF-7, MTT, 24 h treatment
HePG-2 cells [4] = experiment: Annexin V-FITC/PI apoptosis and necrosis assay by flow cytometry; type: cell-based, human; details: for increase of early apoptotic ratio compared to control cells / increase of late apoptotic % compared to control cells / necrosis compared to the control cell HePG-2: HePG-2; for apoptosis total, cell content % / apoptosis early, cell content % / necrosis, cell content % / apoptosis late, cell content %: HePG-2, compound at IC50; for apoptosis early, cell content %: lower right quadrant; for necrosis, cell content %: upper left quadrant; for apoptosis late, cell content %: upper right quadrant
[5] = target: recombinant human carbonic anhydrase XII (hCAXII) (Homo sapiens, UniProt O43570); experiment: hCAXII enzyme inhibition assay; type: biochemical
Chain of recombinant human carbonic anhydrase XII (hCAXII) (O43570 25-291): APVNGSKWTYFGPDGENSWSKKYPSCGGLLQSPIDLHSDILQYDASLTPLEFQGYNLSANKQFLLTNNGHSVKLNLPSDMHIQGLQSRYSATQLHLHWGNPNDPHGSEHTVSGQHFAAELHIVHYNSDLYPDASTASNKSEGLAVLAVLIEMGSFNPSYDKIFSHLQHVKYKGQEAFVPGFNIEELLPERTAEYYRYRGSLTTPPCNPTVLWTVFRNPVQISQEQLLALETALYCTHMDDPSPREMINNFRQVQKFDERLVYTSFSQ

HePG-2 cell line = experiment: MTT cytotoxicity assay, HePG-2; type: cell-based, human; details: for IC50: Homo sapiens, HepG2, 24 h, read-out: IC50 in μg/mL HePG-2, MTT, 24 h treatment

| SMILES | IC50 [1] [µg/mL] | cell cycle comment (phase of arrest) (HePG-2 cells [2]; HePG-2) | %G0–G1 (DNA content) (HePG-2 cells [2]) [%] | %G2/M (DNA content) (HePG-2 cells [2]) [%] | %S (DNA content) (HePG-2 cells [2]) [%] | increase in level of active caspase-9 compared to control (caspase-9) [fold] | Casp9 OD (caspase-9) | IC50 [3] [nM] | IC50 (MCF-7 cell line) [µg/mL] | increase of early apoptotic ratio compared to control cells (HePG-2 cells [4]) [fold] | increase of late apoptotic % compared to control cells (HePG-2 cells [4]) | necrosis compared to the control cell HePG-2 (HePG-2 cells [4]) [fold] | apoptosis total, cell content % (HePG-2 cells [4]) [%] | apoptosis early, cell content % (HePG-2 cells [4]) [%] | necrosis, cell content % (HePG-2 cells [4]) [%] | apoptosis late, cell content % (HePG-2 cells [4]) [%] | IC50 [5] [nM] | IC50 (HePG-2 cell line) [µg/mL] | anticancer/cytotoxic activity in words, MCF-7 (MCF-7 cell line) | anticancer/cytotoxic activity in words, HePG-2 (HePG-2 cell line) | other results |
| --- | --- | --- | --- | --- | --- | --- | --- | --- | --- | --- | --- | --- | --- | --- | --- | --- | --- | --- | --- | --- | --- |
| N#CC1CSc2[nH]c(=O)sc2C1c1cn(-c2ccccc2)nc1-c1ccc(Br)cc1 (stereo not shown) [compound 7e, 7-(3-(4-Bromophenyl)-1-phenyl-1H-pyrazol-4-yl)-2-oxo-3,5,6,7-tetrahydro-2H-thiopyrano-[2,3-d]thiazole-6-carbonitrile] | 27.1 ± 3.3 (≈ 54.6 µM) | arrested in phase S; also recorded: cell growth arrest@S | 41.39 | 14.36 | 44.25 | ~4 | 0.813 | 67 ± 3 | 10.1 ± 2.1 (≈ 20.4 µM) | 21 | approximately 101 fold | ~3 | 36.28 | 11.91 | 3.13 | 21.24 | 202 ± 11 | 9.11 ± 3.2 (≈ 18.4 µM) | – | – | increase of cell ratio in phase S compared to the control (HePG-2 cells [2]; HePG-2): 1.2 fold |
| CCOC(=O)C1CSc2[nH]c(=O)sc2C1c1cn(-c2ccccc2)nc1-c1ccc(Cl)cc1 (stereo not shown) [compound 7i, Ethyl 7-(3-(4-Chlorophenyl)-1-phenyl-1H-pyrazol-4-yl)-2-oxo-3,5,6,7-tetra-hydro-2H-thiopyrano[2,3-d]thiazole-6-carboxylate] | 19.5 ± 1.6 (≈ 39.1 µM) | arrested in phase G2/M; also recorded: cell growth arrest@G2/M | 39.56 | 27.93 | 32.51 | 3 | 0.609 | 287 ± 14 | 10.1 ± 1.5 (≈ 20.2 µM) | 52 | ~45 fold | ~3 | 41.13 | 28.71 | 2.91 | 9.51 | 123 ± 7 | 7.83 ± 2.1 (≈ 15.7 µM) | – | – | increase of cell ratio in phase G2/M compared to the control (HePG-2 cells [2]; HePG-2): 1.6 fold; caspase-9 protein level vs untreated cells, Image J analysis (caspase-9; after normalization to β-actin): 2.98 fold |
| Cc1ccc(-c2nn(-c3ccccc3)cc2C2c3sc(=O)[nH]c3SC3C(=O)N(c4ccccc4)C(=O)C32)cc1 (stereo not shown) [compound 5d, 8-(3-(4-Methylphenyl)-1-phenyl-1H-pyrazol-4-yl)-6-phenyl-7a,8-dihydro-pyrrolo[3′,4′:5,6]-thiopyrano[2,3-d]thiazole-2,5,7(3H,4aH,6H)-trione] | 49.9 ± 3.4 (≈ 90.5 µM) | – | – | – | – | – | – | 336 ± 16 | 25.4 ± 2.1 (≈ 46.1 µM) | – | – | – | – | – | – | – | 604 ± 33 | 21.3 ± 1.8 (≈ 38.7 µM) | good cytotoxic effect | good cytotoxic effect | IC50 in μg/mL MCF-7 (MCF-7 cell line; MTT, 24 h treatment): 25.95 ± 2.8 µg/mL (≈ 47.1 µM) |
| CCOC(=O)C1CSc2[nH]c(=O)sc2C1c1cn(-c2ccccc2)nc1-c1ccc(Br)cc1 (stereo not shown) [compound 7j, Ethyl 7-(3-(4-Bromophenyl)-1-phenyl-1H-pyrazol-4-yl)-2-oxo-3,5,6,7-tetra-hydro-2H-thiopyrano[2,3-d]thiazole-6-carboxylate] | 33.8 ± 2.5 (≈ 62.2 µM) | – | – | – | – | – | – | 239 ± 30 | 11.8 ± 4 (≈ 21.8 µM) | – | – | – | – | – | – | – | 589 ± 30 | 10.3 ± 4.8 (≈ 18.9 µM) | strong cytotoxicity | strong cytotoxicity | – |
| CCOC(=O)C1CSc2[nH]c(=O)sc2C1c1cn(-c2ccccc2)nc1-c1ccc(C)cc1 (stereo not shown) [compound 7g, Ethyl 7-(3-(4-Methylphenyl)-1-phenyl-1H-pyrazol-4-yl)-2-oxo-3,5,6,7-tetrahydro-2H-thiopyrano[2,3-d]thiazole-6-carboxylate] | 30.3 ± 1.7 (≈ 63.5 µM) | – | – | – | – | – | – | 390 ± 19 | 12.3 ± 2.4 (≈ 25.8 µM) | – | – | – | – | – | – | – | 566 ± 31 | 11.9 ± 2.7 (≈ 24.9 µM) | strong cytotoxicity | strong cytotoxicity | – |
